The record followed here is publication PMC3586822 (Chemico-biological interactions, 2012).

Molecules are shown by their SMILES.

This assay deals with human AChE (Homo sapiens, UniProt P22303). Description: coupled Ellman assay, second-order hydrolysis. It counts as biochemical. On the technique in general: In Ellman's method for cholinesterases, released thiocholine reacts with DTNB.
Sequence of human AChE (P22303 32-614): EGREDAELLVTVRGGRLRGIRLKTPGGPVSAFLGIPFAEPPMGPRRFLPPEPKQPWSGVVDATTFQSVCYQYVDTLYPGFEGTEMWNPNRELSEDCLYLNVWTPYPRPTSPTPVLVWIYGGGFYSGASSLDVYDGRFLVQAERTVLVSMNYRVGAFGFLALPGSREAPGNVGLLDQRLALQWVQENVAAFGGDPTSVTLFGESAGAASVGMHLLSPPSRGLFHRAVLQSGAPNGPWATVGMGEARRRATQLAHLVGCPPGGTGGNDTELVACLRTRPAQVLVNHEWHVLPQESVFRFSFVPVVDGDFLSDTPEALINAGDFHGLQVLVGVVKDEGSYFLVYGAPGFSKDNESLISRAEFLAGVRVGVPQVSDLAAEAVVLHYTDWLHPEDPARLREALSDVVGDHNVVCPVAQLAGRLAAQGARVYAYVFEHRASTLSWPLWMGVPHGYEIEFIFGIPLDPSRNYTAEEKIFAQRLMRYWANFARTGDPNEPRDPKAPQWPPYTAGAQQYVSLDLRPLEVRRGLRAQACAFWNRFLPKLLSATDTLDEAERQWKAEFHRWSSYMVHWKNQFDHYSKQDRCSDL

In general, Ki refers to a measure of affinity in units of concentration, obtained from inhibition or displacement. A low value points to higher affinity. `Cc1ccc2c(c1)sc(-c1ccc(N(C)C)cc1)[n+]2C` [thioflavin T] returned a Ki of 1330 ± 50 nM.
